# Experimental data from patent US20100190805A1, “PREPARATION FOR THE TREATMENT OF EQUINE LAMINITIS” (BOEHRINGER INGELHEIM VETMEDICA GMBH, priority 2007, published 2010).
# Key:
# [1] = horses, cited from earlier work
# [2] = tested on: horses suffering from acute laminitis; assay: Treatment of horses suffering from laminitis with allopurinol (case reports); assay type: in vivo, horse; conditions: oral allopurinol 1 to 50 mg/kg of body weight
# Description: Thus there are also positive effects on the general condition. […] Only by treating with allopurinol is it possible to carry out this treatment as horses suffering acute pain cannot be fitted with supports.
compound,measurement,setting,value
Oc1ncnc2[nH]ncc12 [allopurinol],bioavailability after oral administration,[1]; oral administration,14.3%
same,sum of the areas under the concentration/time curves of allopurinol and oxypurinol after oral administration of allopurinol,[1]; oral versus intravenous allopurinol,identical to that of allopurinol administered intravenously
same,appetite / general condition,[2],appetite returns
same,inflammation,[2],decline after three days' treatment
same,lameness,[2],reduced
same,pain,[2],decline after three days' treatment
same,time until horses can be fitted with an orthopaedic hoof support,[2]; time after the start of treatment,roughly one week after the start of treatment
